This passage reports GI50 and TGI results from PubChem BioAssay (NCI).

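Briefly, cells in 96-well plates were exposed to five compound concentrations for 48 h, and endpoints were estimated by linear interpolation. GI50 = concentration required for 50% inhibition of growth. The concentration for full growth arrest is given as TGI.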

Some test systems named below: MCF7 breast; PC-3 prostate; RPMI-8226 leukemia; NCI-H226 lung; SF-295 CNS; BT-549 breast; MOLT-4 leukemia; M14 melanoma; CAKI-1 renal; TK-10 renal.
What all share (assay): NCI anticancer screen, dose series, 48 h

On to `CCOC(=O)c1ccc(Nc2sc(C(=O)c3ccc(Br)cc3)c(N)c2C#N)cc1`, for which the GI50 in the test on MCF7 breast was 0.655 µM; in the test on PC-3 prostate, 0.797 µM; in the test with RPMI-8226 leukemia, 2.57 µM; in the test on NCI-H226 lung, 19.2 µM; with SF-295 CNS it was 0.478 µM; in the test on BT-549 breast it was above 100 µM. Besides, the GI50 with MOLT-4 leukemia was 4.61 µM; with M14 melanoma, 1.27 µM; in the test with CAKI-1 renal it was 1.73 µM. The TGI in the test on MCF7 breast was above 100 µM; in the test with PC-3 prostate, above 100 µM; in the test on RPMI-8226 leukemia, above 72.3 µM; in the test with NCI-H226 lung, above 100 µM; in the test with SF-295 CNS, above 100 µM; in the test with BT-549 breast, above 100 µM. Also, the TGI in the test on MOLT-4 leukemia, in the test on M14 melanoma and in the test with CAKI-1 renal was above 100 µM in each case.
In the case of `O=C1c2[nH]cc(CNC3CN4CCC3CC4)c2C(=O)c2c1c(O)c1ccccc1c2O` (centres undefined), the GI50 with PC-3 prostate is 1.21 µM; with RPMI-8226 leukemia, 1.46 µM; with TK-10 renal, 0.266 µM; in the test on NCI-H226 lung it was 16.3 µM; with SF-295 CNS it was 2.05 µM; in the test with BT-549 breast, 21.6 µM. Also, the GI50 was 3.11 µM in the test on M14 melanoma and 0.612 µM in the test on CAKI-1 renal. In addition, the TGI with PC-3 prostate stood at 3.41 µM; in the test with RPMI-8226 leukemia it was 4.15 µM; in the test with TK-10 renal, 1.19 µM; in the test on NCI-H226 lung it was 41.4 µM; in the test with SF-295 CNS it was 3.62 µM; in the test with BT-549 breast it was 47.1 µM. Also, the results for the TGI in the test with MOLT-4 leukemia, in the test with M14 melanoma and in the test with CAKI-1 renal were 1.72 µM, 11.7 µM and 2.05 µM, respectively.
Regarding `NCCCNc1nc2ccccc2c2c(=O)c3cc(F)cc(F)c3sc12`, the GI50 with PC-3 prostate is 1.67 µM; with TK-10 renal it was 1.69 µM; in the test with NCI-H226 lung, 10.9 µM; with SF-295 CNS, 1.99 µM; in the test on BT-549 breast, 13 µM; in the test on M14 melanoma, 1.79 µM. Also, the GI50 in the test with CAKI-1 renal was 1.86 µM. For the same molecule, the TGI in the test on PC-3 prostate is 3.24 µM; with TK-10 renal, 3.18 µM; in the test with NCI-H226 lung it was 29.1 µM; in the test with SF-295 CNS, 4.06 µM; with BT-549 breast, 26.8 µM; in the test on M14 melanoma, 3.3 µM. In addition, in the test on CAKI-1 renal, the TGI is 4.18 µM.
On to `Cn1cc(C2=C(c3ccccc3[N+](=O)[O-])C(=O)NC2=O)c2ccccc21`, for which the GI50 with MCF7 breast is 4.05 µM; with PC-3 prostate it was 1.65 µM; in the test on RPMI-8226 leukemia, 5.93 µM; in the test on TK-10 renal, 5.58 µM; with NCI-H226 lung it was 4.37 µM; with SF-295 CNS, 1.44 µM. In addition, the GI50 in the test with BT-549 breast was 5.26 µM; in the test with M14 melanoma it was 6.32 µM; in the test with CAKI-1 renal, 3.87 µM. In addition, the TGI in the test with MCF7 breast was above 25 µM; in the test with PC-3 prostate, 11.6 µM; in the test on RPMI-8226 leukemia, 15.2 µM; in the test with TK-10 renal, 18.6 µM; in the test with NCI-H226 lung it was above 20.3 µM; in the test with SF-295 CNS, above 25 µM. Also, the values for the TGI in the test with BT-549 breast, in the test on M14 melanoma and with CAKI-1 renal were above 20.2 µM, above 20.9 µM and above 20.8 µM, respectively.
Turning to `C[C@]12CCc3nc(Nc4cccc(O)c4)sc3C1=CC[C@@H]1[C@@H]2CC[C@]2(C)/C(=N\NC(N)=S)CC[C@@H]12`, the GI50 is 1.52 µM with MCF7 breast; 1.7 µM with PC-3 prostate; 1.9 µM with TK-10 renal; 5.34 µM in the test on NCI-H226 lung; 1.2 µM in the test with SF-295 CNS; 1.15 µM with BT-549 breast. Besides, the GI50 is 0.765 µM in the test with MOLT-4 leukemia, 1.96 µM with M14 melanoma and 1.64 µM in the test on CAKI-1 renal. Moreover, the TGI turned out to be 3.13 µM with MCF7 breast; 6.35 µM in the test on PC-3 prostate; 4.4 µM in the test with TK-10 renal; 80.7 µM with NCI-H226 lung; 3.11 µM with SF-295 CNS; 3.97 µM in the test with BT-549 breast. The TGI is 6.9 µM with MOLT-4 leukemia, 5 µM with M14 melanoma and 3.26 µM with CAKI-1 renal.
In the case of `O=c1cc(-c2ccccc2)oc2ccc(OC/C(=N/O)c3ccccc3)cc12`, the GI50 is 2.46 µM with PC-3 prostate; 1.83 µM with RPMI-8226 leukemia; above 50 µM in the test with TK-10 renal; 15.9 µM in the test on NCI-H226 lung; 1.25 µM in the test with SF-295 CNS; 1.46 µM in the test on BT-549 breast. Moreover, the figures for the GI50 in the test on MOLT-4 leukemia, in the test with M14 melanoma and in the test with CAKI-1 renal were 5.72 µM, above 50 µM and 1.79 µM, respectively. Moreover, the TGI in the test with PC-3 prostate was 16.1 µM; with RPMI-8226 leukemia, above 50 µM; in the test on TK-10 renal it was above 50 µM; in the test with NCI-H226 lung, above 50 µM; in the test with SF-295 CNS it was 3.34 µM; in the test with BT-549 breast it was 9.01 µM. Moreover, the results for the TGI with MOLT-4 leukemia, with M14 melanoma and with CAKI-1 renal were above 50 µM, above 50 µM and 16.2 µM, respectively.
As to `COc1ccc(/C=C(/C(=O)N2CCN(c3ccccc3)CC2)c2cc(OC)c(OC)c(OC)c2)cc1N`, the GI50 in the test with MCF7 breast is 0.326 µM; in the test with PC-3 prostate, 0.414 µM; in the test with RPMI-8226 leukemia, 0.327 µM; with TK-10 renal it was 72.1 µM; in the test with NCI-H226 lung, 3.2 µM; in the test with SF-295 CNS it was 0.342 µM. For the same molecule, the GI50 in the test on BT-549 breast was 0.53 µM; with MOLT-4 leukemia it was 0.524 µM; in the test with M14 melanoma, 0.254 µM. Further, the TGI is above 100 µM in the test on MCF7 breast; above 100 µM in the test with PC-3 prostate; 12 µM in the test on RPMI-8226 leukemia; above 100 µM in the test on TK-10 renal; above 100 µM with NCI-H226 lung; above 100 µM in the test on SF-295 CNS. Further, the TGI is above 100 µM in the test on BT-549 breast, above 100 µM with MOLT-4 leukemia and 3.58 µM in the test on M14 melanoma.
In the case of `CO/C=C/C(=O)c1cc2cnc3c(=N)cc(NC(=O)C(C)C)c([nH]1)c23`, the GI50 in the test with MCF7 breast is 0.0182 µM; in the test with PC-3 prostate, 0.0183 µM; with RPMI-8226 leukemia, 0.0149 µM; with TK-10 renal, 0.0266 µM; in the test on NCI-H226 lung, 0.106 µM; with SF-295 CNS, 0.105 µM. Besides, the results for the GI50 with BT-549 breast, in the test with MOLT-4 leukemia and with M14 melanoma were 0.0236 µM, 0.0159 µM and 0.0703 µM, respectively. Also, the TGI stood at 1.25 µM in the test on MCF7 breast; 0.817 µM with PC-3 prostate; 0.0906 µM in the test on RPMI-8226 leukemia; 0.258 µM in the test on TK-10 renal; 1.26 µM in the test on NCI-H226 lung; 0.771 µM in the test with SF-295 CNS. In addition, the TGI in the test on BT-549 breast amounted to 0.258 µM; in the test with MOLT-4 leukemia it was 0.166 µM; with M14 melanoma, 0.529 µM.
